Reference: patent publication US5364944A, “Substituted benzoylbenzene-, biphenyl- and 2-oxazole- alkanoic acid compounds” (American Home Products Corporation, priority 1993, dated 1994)
Structures can show the parent of a compound that is named as a salt. Where two headings read alike, the source gives them in different places.

How the values were obtained:
[1] = test system: fluid and cellular phases of an inflammatory response; test: Reverse passive Arthus pleurisy assay, pleural inflammation (fluid exudation, cellular influx); format: in vivo, rat (male Lewis)
Procedure: (§1) The compounds of the invention are further tested in the reverse passive Arthus pleurisy assay to evaluate their effectiveness in inflammatory mediator release and/or the fluid and cellular phases of an inflammatory response.
(§2) This assay is carried out as follows:
(§3) A reverse passive Arthus reaction is induced in the pleural cavity of male Lewis rats (150-200 g; fasted overnight prior to use) by the intravenous administration of bovine serum albumin (BSA; 4 mg/0.2 ml) followed 30 minutes later by the injection of rabbit anti-BSA (1 mg/0.2 ml; lyophilized IgG fraction; Organon Teknika, West Chester, Pa.) into the right pleural space under halothane anesthesia. Drugs or vehicle (0.5% Tween-80) control are administered orally in a volume of 1 ml/100 g body weight at 1 hour prior to the anti-BSA. Animals are sacrificed at either the time of peak eicosanoid production (i.e. 5 minutes after anti-BSA for immunoreactive TxB2 10 minutes for immunoreactive LTB4, 20 minutes for immunoreactive LTC4) or at the time of peak neutrophil infiltration (4 hours after anti-BSA) by CO2 inhalation. The pleural cavity is then exposed, the fluid exudate removed by gentle vacuum aspiration and the volume of exudate is recorded. For the determination of cellular infiltration, the pleural cavity is rinsed with 3 ml of 0.1% EDTA in sterile saline, and the recovered wash is pooled with the exudate. Cell number is determined on a model ZBI Coulter counter. For determination of eicosanoid production, undiluted pleural exudate is microfuged and the supernatant is extracted with ethanol (8-10 times volume). Extracts are either stored at -20° C., or are evaporated to dryness under a stream of N2 and reconstituted in radioimmunoassay (RIA) buffer.
(§4) Inflammatory cells are expressed as 10^6 cells/ml, pleural exudate is expressed as ml of fluid, and the amount of eicosanoids in the pleural cavity is expressed as ng/ml of exudate. Mean ±S.E.M. is determined for each group. Percent inhibition (% I) of cell number, exudate volume and eicosanoid production is calculated for vehicle-treated control groups, and the responses in drug-treated rats are then expressed as the mean % I of the control. […] Exp. Ther., 96, 99-113 (1949).

LTB4 = test: Reverse passive Arthus pleurisy assay, inflammatory mediator release: LTB4; format: in vivo, rat (male Lewis); conditions: for % Inhibition of LTB4 Synthesis: 3 hours before challenge
Procedure: as §1, §2
as §3, with “Drugs or vehicle (0.5% Tween-80) control are administered orally in a volume of 1 ml/100 g body weight at 1 hour prior to the anti-BSA.” left out
Eicosanoids are quantitated by RIA according to the procedure specified by the RIA kit manufacturer (Advanced Magnetics, Cambridge, Mass.). Briefly, 100 μl of ^3 H-labeled eicosanoid and 100 μl of specific antibody are sequentially added to 100 μl of extracted pleural exudate in BGG -phosphate buffer which contains 0.01 M phosphate, 0.1% bovine gamma globulin and 0.1% sodium azide at pH 7.0. Antibody-bound eicosanoid is separated from unbound eicosanoid by the addition of 750 μl of dextran (0.4%)-coated charcoal (0.4% Norit A) containing 0.1% sodium azide. The mixture is centrifuged at 2000 RPM at 5° C. for 15 minutes to pellet the charcoal and adsorbed unbound eicosanoid. Antibody-bound labeled eicosanoid is quantitated by counting in a liquid scintillation counter, and is correlated to concentration by a standard curve.
as §4

[2] = test system: 5-lipoxygenase in human whole blood; test: Inhibition of 5-lipoxygenase in human whole blood (LTB4); format: cell-based
Procedure: The assay of this Example measures the ability of the compounds tested to inhibit 5-lipoxygenase in human whole blood.
as §2
Blood is obtained in 50-100 ml quantities from male donors. White blood cell counts and differentials are made. Two ml of blood are placed in a 15 ml polypropylene test tube. Compounds are solubilized in dimethylsulfoxide and diluted 1:10 in 10% bovine serum albumin in phosphate buffered saline, pH 7.4 resulting in a final dimethylsulfoxide concentration of 0.1% in the blood. Then, compounds are added to the blood in a shaking water bath at 37° C. for 10 minutes prior to the addition of 30 μM calcium ionophore (A23187; Sigma). After ionophore administration, whole blood samples are mixed and incubated for 20 minutes at […] in a shaking water bath. Incubation is terminated by placing samples in an ice bath and immediately adding ethylene glycol-bis-(β-aminoethyl ether)-N,N,N',N'-tetraacetic acid (10 mM). Samples are mixed and centrifuged at 1200×g for 15 minutes at 4° C. Preparation of samples for evaluation by RIA or ELISA is carried out by the following protocol. Plasma is removed from sample tubes, placed in 15 ml polypropylene test tubes containing 8 ml methanol, and then vortexed to precipitate protein. Samples are stored at -70° C. overnight. The next day, samples are centrifuged at 200×g for 15 minutes at 4° C. to pellet the precipitate. Samples are dried in a Savant speed vac concentrator, reconstituted to original volume with ice cold RIA or ELISA buffer, and stored at -70° C. until assayed. The assay for eicosanoids (LTB4, TxB2, and PGE2) is performed as described by the manufacturer of the [^3 H]-RIA kit or ELISA kit (LTB4 -Amersham, TxB2 and PGE2 - Caymen Chemical).
The total eicosanoid level in 2 ml of blood is calculated and reported as ng/10^6 neutrophils. […] Drug effects are expressed as percent change from control values.
Compounds tested in vitro are solubilized in dimethylsulfoxide and diluted 1:10 in 10% bovine serum albumin in phosphate buffer saline resulting in a final dimethylsulfoxide concentration of 0.1% in the blood.

[3] = target: T1, LTD4-induced contractions of isolated guinea pig trachea (Cavia porcellus, UniProt Q2NNR5); test: In vitro isolated guinea pig trachea assay, LTD4 antagonist activity; design: species or system guinea pig (male Hartley); conditions: 1 × 10^-5 M
T1 construct: isolated guinea pig trachea; from tissue; host or cells: tracheal rings of male Hartley guinea pigs
T1 sequence (Q2NNR5 1-340): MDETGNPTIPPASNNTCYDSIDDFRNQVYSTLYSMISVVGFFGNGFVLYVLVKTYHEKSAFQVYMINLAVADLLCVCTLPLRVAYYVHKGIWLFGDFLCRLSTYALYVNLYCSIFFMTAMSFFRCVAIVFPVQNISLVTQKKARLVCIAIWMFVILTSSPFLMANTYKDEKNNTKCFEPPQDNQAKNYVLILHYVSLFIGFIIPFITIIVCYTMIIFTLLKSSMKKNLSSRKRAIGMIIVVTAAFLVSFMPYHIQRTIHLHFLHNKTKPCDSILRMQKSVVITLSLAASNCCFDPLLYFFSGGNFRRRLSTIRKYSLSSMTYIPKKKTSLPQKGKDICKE
Procedure: The LTD4 antagonist activity of the compounds of the invention is assessed in the in vitro isolated guinea pig trachea assay. This assay is carried out as follows: Male Hartley guinea pigs (350-400 g) are euthanized by a blow to the head, the neck is opened and the trachea removed. The trachea is maintained in aerated physiological salt solution, cleared of connective tissue and fat and cut into rings approximately 2 mm in width (usually containing two cartilaginous segments per ring). Two pieces of silk suture are then passed through the lumen of the tracheal ting and are tied around the cartilage, one on each side of the trachealis muscle. The tracheal ring is suspended between a glass hook and a force displacement transducer in a 10 ml organ bath for measurement of isometric tension. […] The tracheal rings are maintained at 2 g resting tension and equilibrated for 45 minutes (with frequent washing and readjustment of resting tension). The tracheal […] contracted by the addition of carbachol (3×10^-6 M), to determine tissue responsiveness and establish a reference contraction. On attainment of a stable level of contraction (approximately 30 minutes), the tissues are washed several times until baseline tension has been restored and the re-equilibrated for 30 minutes. The tissues are then incubated for 45 minutes with a test antiagonist (either 1×10^-6 M or 1×10^-5 M) or 10 μl of an appropriate solvent control (control, nontreated). One tissue in each group serves as the control. Twenty minutes prior to the construction of the LTD4 cumulative concentration-response curve, L-[…]×10^-2 M final bath concentration) is added to inhibit bioconversion of LTD4 to LTE4. Only one LTD4 concentration-response curve is constructed in each tissue. All responses to LTD4 in an individual tissue are measured as a percentage of the reference contraction of that tissue to carbachol. LTD4 antagonist activity is determined by comparison of the concentration response curves of LTD4 in the presence and absence of antagonist. Assessment of the relative rightward shift of the antagonist treated curve relative to the solvent (control) treated tissue is calculated as a concentration ratio (Eq. A) and used in subsequent calculations to derive an antagonist pKB value (Eqs. B and C). […] If a compound is found to be active and/or depress the maximal response to LTD4, then a range of concentrations of the test compound should be used generating multiple concentration ratios which would then be used to perform a Schild analysis, and determination of a pA2 value where appropriate.

| Compound | % Inhibition of LTB4 Synthesis (LTB4; 25 mg/kg p.o.) [%] | % Inhibition of LTB4 ([2]; at 25 μM) [%] | Kb [3] [nM] | also measured |
| --- | --- | --- | --- | --- |
| C[C@@H]1C[C@H]2[C@@H]3CCC4=CC(=O)C=C[C@]4(C)[C@@]3(F)[C@@H](O)C[C@]2(C)[C@@]1(O)C(=O)CO [Dexamethasone] |  |  |  | ED30 Fluid Exudation ([1]; p.o., pleural inflammation, standard drugs): 0.05 mg/kg |
| O=C(O)Cc1ccc(-c2ccc(OCc3ccc4ccccc4n3)cc2)c(F)c1 [Example 2, 2-Fluoro-4'-(2-quinolinylmethoxy)-[1,1'-biphenyl]-4-acetic acid] | 34 | 5 | 631 |  |
| CC(C)N(O)C(=O)Cc1ccc(-c2ccc(OCc3nc4ccccc4s3)cc2)cc1 [Example 15, N-Hydroxy-N-isopropyl-4'-(2-benzothiazolymethoxy)[1,1'-biphenyl]-4-acetamide] |  | 77 | > 10000 | % Inhibition of LTB4 Synthesis (LTB4; 10 mg/kg p.o.): 12% |
| CC(C(=O)N(C)O)c1ccc(-c2ccc(OCc3nc4ccccc4s3)cc2)cc1 (centres unmarked) [Example 17, N-Hydroxy-N.,a,-dimethyl-4'-(2-benzothiazolylmethoxy)[1,1'-biphenyl]-4-acetamide, sodium salt, methanol solvate] | 37 |  | > 3160 |  |
| CN(O)C(=O)Cc1ccc(-c2ccc(OCc3csc(-c4ccccc4)n3)cc2)cc1 [Example 18] | 32 | 97 | > 7940 | IC50 [2]: 500 nM |
| CC(C)N(O)C(=O)Cc1ccc(-c2ccc(OCc3csc(-c4ccccc4)n3)cc2)cc1 [Example 20, N-Hydroxy-N-isopropyl-4'-[(2-phenylthiazol-4yl)methoxy][1,1'-biphenyl]-4-acetamide] | 19 | 93 |  | pKB [3]: < 5.2 |
| CC(C(=O)N(C)O)c1ccc(-c2ccc(OCc3csc(-c4ccccc4)n3)cc2)cc1 (stereo not drawn) [Example 22, N-Hydroxy-N,α-dimethyl-4'-[(2-phenylthiazol-4-yl)methoxy][1,1'-biphenyl]-4-acetamide,sodium salt, hydrate] |  |  | 5010 | % Inhibition of LTB4 Synthesis (LTB4; 25 mg/kg p.o., sodium salt, hydrate): 37%; % Inhibition of LTB4 ([2]; at 25 μM, sodium salt, hydrate): 74%; IC50 ([2]; sodium salt, hydrate): 9000 nM |
| CC(C(=O)N(C)O)c1ccc(-c2ccc(OCc3nc4ccccc4n3C)cc2)cc1 (stereo not drawn) [Example 24, N-Hlydroxy-N,α-dimethyl-4'-[(1-methyl-1H-benzimidazol-2-yl)methoxy]-[1,1'-biphenyl]-4-acetamide, hydrochloride salt] | 56 |  | 1000 |  |
| CN(O)C(=O)Cc1ccc(-c2ccc(OCc3nc4ccccc4s3)cc2)c(F)c1 [Example 26] | 7 | 86 | > 10000 | IC50 [2]: 1300 nM |
| CN(O)C(=O)Cc1cccc(C(=O)c2ccc(OCc3nc4ccccc4s3)cc2)c1 [Example 30, 2-{3-[4-(Benzothiazol-2-ylmethoxy)-benzoyl]-phenyl}-N-hydroxy-N-methyl-4-acetamide 0,6 ethyl acetate solvate] | 21 |  |  | IC50 [2]: 980 nM; % Inhibition of LTB4 ([2]; at 10 μM): 96% |
| CC(c1ccc(-c2ccc(OCc3nc4ccccc4s3)cc2)cc1)N(O)C(N)=O (centres unmarked) [Example 33, 1-{1-[4'-(Benzothiazol-2-ylmethoxy)biphenyl-4-yl]-ethyl}-1-hydroxy-urea] | 2 |  | > 10000 | % Inhibition of LTB4 ([2]; at 10 μM): 10% |
| COc1ccc2c(c1)c(CC(=O)O)c(C)n2C(=O)c1ccc(Cl)cc1 [Indomethacin] |  |  |  | % Inh LTB4 (LTB4; 4 mg/kg p.o., standard drugs): 12%; % Inh Cellular Influx ([1]; 8 mg/kg p.o., standard drugs): 19%; ED30 ([1]; Rattus norvegicus, po, read-out: ED30 Fluid Exudation): 2.5 mg/kg |
